# Test results reported in EP2768830B1, “APOPTOSIS-INDUCING AGENTS FOR THE TREATMENT OF CANCER AND IMMUNE AND AUTOIMMUNE DISEASES” (AbbVie Inc., priority 2011, dated 2013).
# Where two headings read alike, the source gives them in different places.
# Key:
# [1] = test system: mouse FL5.12 cells transfected with Bcl-XL; test: FL5.12 cellular assay (cell viability, CellTiter-Glo); assay type: cell-based; settings: FL5.12 cells transfected with Bcl-XL, IL-3-depleted, 3% FBS assay media, 24 hours, CellTiter-Glo, read-out: FL5.12 Bcl-xL, - IL3, EC 50;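 further: each EC50 determination derived from duplicate measurements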
# Protocol: For assaying the compound activity, the cells were exchanged into an IL-3-depleted deprivation media, which was identical to the growth media except for the absence of FBS and WEHI-3B conditional media, for 2 days. Then the cells were exchanged to 3% FBS assay media (RPMI with 2 mM glutamine, 1% 100 mM sodium pyruvate, 2% 1 M HEPES, 4 µL/L of β-mercaptoethanol, 1% penicillin-streptomycin, 3% FBS). Compounds in series dilutions were added, and the cells were cultured for 24 hours. Compounds in series dilutions were added, and the cells were cultured for 24 hours. Cell viability was assayed using the CellTiter-Glo assay (Promega Corp., Madison, WI) according to the manufacturer instructions. Individual determinations were the result of duplicate values.
# GST-Bcl-xL = GST-Bcl-xL (Homo sapiens, UniProt Q07817); settings: read-out: TR-FRET binding Bcl-xL Ki
# Sequence of GST-Bcl-xL (Q07817 whole entry): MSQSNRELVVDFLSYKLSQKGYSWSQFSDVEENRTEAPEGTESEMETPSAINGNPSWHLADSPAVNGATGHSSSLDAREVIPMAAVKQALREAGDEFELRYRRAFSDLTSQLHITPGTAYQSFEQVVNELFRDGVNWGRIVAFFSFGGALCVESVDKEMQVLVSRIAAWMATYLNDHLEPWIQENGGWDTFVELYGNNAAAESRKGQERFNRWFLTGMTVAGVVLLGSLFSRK
Structure (SMILES),EC50 [1],Ki (GST-Bcl-xL),EC50 ([1]; Mus musculus)
"O=C(Nc1nc2ccccc2s1)c1cccc2c1CN(c1ccc(-c3cnn(CCc4ccccc4)c3)c(C(=O)O)n1)CC2 [Example 38, 6-[8-(1,3-benzothiazol-2-ylcarbamoyl)-3,4-dihydroisoquinolin-2(1H)-yl]-3-[1-(2-phenylethyl)-1H-pyrazol-4-yl]pyridine-2-carboxylic acid]",> 1 µM,0.048 µM,
"O=C(Nc1nc2ccccc2s1)c1cccc2c1CN(c1ccc(-c3cnn(C4CCOc5ccccc54)c3)c(C(=O)O)n1)CC2 (stereo not drawn) [Example 39, 6-[8-(1,3-benzothiazol-2-ylcarbamoyl)-3,4-dihydroisoquinolin-2(1H)-yl]-3-[1-(3,4-dihydro-2H-chromen-4-yl)-1H-pyrazol-4-yl]pyridine-2-carboxylic acid]",,0.056 µM,> 1 µM
"CN(C)CCOc1ccccc1Cn1cc(-c2ccc(N3CCc4cccc(C(=O)Nc5nc6ccccc6s5)c4C3)nc2C(=O)O)cn1 [Example 40, 6-[8-(1,3-benzothiazol-2-ylcarbamoyl)-3,4-dihydroisoquinolin-2(1H)-yl]-3-(1-{2-[2-(dimethylamino)ethoxy]benzyl}-1H-pyrazol-4-yl)pyridine-2-carboxylic acid]",,0.016 µM,0.57 µM
"Cc1c(-c2ccc(N3CCc4cccc(C(=O)Nc5nc6ccccc6s5)c4C3)nc2C(=O)O)cnn1Cc1ccccc1F [Example 41, 6-[8-(1,3-benzothiazol-2-ylcarbamoyl)-3,4-dihydroisoquinolin-2(1H)-yl]-3-[1-(2-fluorobenzyl)-5-methyl-1H-pyrazol-4-yl]pyridine-2-carboxylic acid]",,0.001 µM,0.011 µM
"O=C(Nc1nc2ccccc2s1)c1cccc2c1CN(c1ccc(-c3cnn(CC4CCCCC4)c3)c(C(=O)O)n1)CC2 [Example 42, 6-[8-(1,3-benzothiazol-2-ylcarbamoyl)-3,4-dihydroisoquinolin-2(1H)-yl]-3-[1-(cyclohexylmethyl)-1H-pyrazol-4-yl]pyridine-2-carboxylic acid]",,0.002 µM,0.233 µM
"CN(C)CCCNc1ccc(Cn2cc(-c3ccc(N4CCc5cccc(C(=O)Nc6nc7ccccc7s6)c5C4)nc3C(=O)O)cn2)cc1[N+](=O)[O-] [Example 44, 6-[8-(1,3-benzothiazol-2-ylcarbamoyl)-3,4-dihydroisoquinolin-2(1H)-yl]-3-[1-(4-{[3-(dimethylamino)propyl]amino}-3-nitrobenzyl)-1H-pyrazol-4-yl]pyridine-2-carboxylic acid]",,0.017 µM,> 1 µM
"O=C(Nc1nc2ccccc2s1)c1cccc2c1CN(c1ccc(-c3cnn(Cc4ccc(F)c([N+](=O)[O-])c4)c3)c(C(=O)O)n1)CC2 [Example 45, 6-[8-(1,3-benzothiazol-2-ylcarbamoyl)-3,4-dihydroisoquinolin-2(1H)-yl]-3-[1-(4-fluoro-3-nitrobenzyl)-1H-pyrazol-4-yl]pyridine-2-carboxylic acid]",,0.019 µM,> 1 µM
"O=C(Nc1nc2ccccc2s1)c1cccc2c1CN(c1ccc(-c3cnn(Cc4ccccc4OCCN4CCOCC4)c3)c(C(=O)O)n1)CC2 [Example 46, 6-[8-(1,3-benzothiazol-2-ylcarbamoyl)-3,4-dihydroisoquinolin-2(1H)-yl]-3-(1-{2-[2-(morpholin-4-yl)ethoxy]benzyl}-1H-pyrazol-4-yl)pyridine-2-carboxylic acid]",,0.009 µM,> 1 µM
"CN(C)CCCOc1ccccc1Cn1cc(-c2ccc(N3CCc4cccc(C(=O)Nc5nc6ccccc6s5)c4C3)nc2C(=O)O)cn1 [Example 47, 6-[8-(1,3-benzothiazol-2-ylcarbamoyl)-3,4-dihydroisoquinolin-2(1H)-yl]-3-(1-{2-[3-(dimethylamino)propoxy]benzyl}-1H-pyrazol-4-yl)pyridine-2-carboxylic acid]",,0.016 µM,0.881 µM
"O=C(Nc1nc2ccccc2s1)c1cccc2c1CN(c1ccc(-c3cnn(Cc4ccccc4OCc4ccncc4)c3)c(C(=O)O)n1)CC2 [Example 48, 6-[8-(1,3-benzothiazol-2-ylcarbamoyl)-3,4-dihydroisoquinolin-2(1H)-yl]-3-{1-[2-(pyridin-4-ylmethoxy)benzyl]-1H-pyrazol-4-yl}pyridine-2-carboxylic acid]",,0.007 µM,> 1 µM
"Cc1c(-c2ccc(N3CCc4cccc(C(=O)Nc5nc6ccccc6s5)c4C3)nc2C(=O)O)cnn1Cc1ccccc1OCCN(C)C [Example 49, 6-[8-(1,3-benzothiazol-2-ylcarbamoyl)-3,4-dihydroisoquinolin-2(1H)-yl]-3-(1-{2-[2-(dimethylamino)ethoxy]benzyl}-5-methyl-1H-pyrazol-4-yl)pyridine-2-carboxylic acid]",,0.0006 µM,0.012 µM
"O=C(Nc1nc2ccccc2s1)c1cccc2c1CN(c1ccc(-c3cnn(CC4CCOCC4)c3)c(C(=O)O)n1)CC2 [Example 50, 6-[8-(1,3-benzothiazol-2-ylcarbamoyl)-3,4-dihydroisoquinolin-2(1H)-yl]-3-[1-(tetrahydro-2H-pyran-4-ylmethyl)-1H-pyrazol-4-yl]pyridine-2-carboxylic acid]",,0.099 µM,> 1 µM
"CN(C)CC#Cc1ccccc1Cn1cc(-c2ccc(N3CCc4cccc(C(=O)Nc5nc6ccccc6s5)c4C3)nc2C(=O)O)cn1 [Example 51, 6-[8-(1,3-benzothiazol-2-ylcarbamoyl)-3,4-dihydroisoquinolin-2(1H)-yl]-3-(1-{2-[3-(dimethylamino)prop-1-yn-1-yl]benzyl}-1H-pyrazol-4-yl)pyridine-2-carboxylic acid]",,0.122 µM,> 1 µM
"O=C(Nc1nc2ccccc2s1)c1cccc2c1CN(c1ccc(-c3cnn(Cc4cccc(F)c4F)c3)c(C(=O)O)n1)CC2 [Example 52, 6-[8-(1,3-benzothiazol-2-ylcarbamoyl)-3,4-dihydroisoquinolin-2(1H)-yl]-3-[1-(2,3-difluorobenzyl)-1H-pyrazol-4-yl]pyridine-2-carboxylic acid]",,0.018 µM,0.57 µM
"O=C(Nc1nc2ccccc2s1)c1cccc2c1CN(c1ccc(-c3cnn(Cc4cc(F)cc(F)c4)c3)c(C(=O)O)n1)CC2 [Example 53, 6-[8-(1,3-benzothiazol-2-ylcarbamoyl)-3,4-dihydroisoquinolin-2(1H)-yl]-3-[1-(3,5-difluorobenzyl)-1H-pyrazol-4-yl]pyridine-2-carboxylic acid]",0.387 µM,0.014 µM,
"O=C(Nc1nc2ccccc2s1)c1cccc2c1CN(c1ccc(-c3cnn(Cc4cc(F)ccc4F)c3)c(C(=O)O)n1)CC2 [Example 54, 6-[8-(1,3-benzothiazol-2-ylcarbamoyl)-3,4-dihydroisoquinolin-2(1H)-yl]-3-[1-(2,5-difluorobenzyl)-1H-pyrazol-4-yl]pyridine-2-carboxylic acid]",,0.015 µM,0.501 µM
"O=C(Nc1nc2ccccc2s1)c1cccc2c1CN(c1ccc(-c3cnn(CC4CCCOC4)c3)c(C(=O)O)n1)CC2 (stereo not drawn) [Example 56, 6-[8-(1,3-benzothiazol-2-ylcarbamoyl)-3,4-dihydroisoquinolin-2(1H)-yl]-3-[1-(tetrahydro-2H-pyran-3-ylmethyl)-1H-pyrazol-4-yl]pyridine-2-carboxylic acid]",,0.024 µM,0.583 µM
"O=C(Nc1nc2ccccc2s1)c1cccc2c1CN(c1ccc(-c3cnn(Cc4ccccc4[N+](=O)[O-])c3)c(C(=O)O)n1)CC2 [Example 57, 6-[8-(1,3-benzothiazol-2-ylcarbamoyl)-3,4-dihydroisoquinolin-2(1H)-yl]-3-[1-(2-nitrobenzyl)-1H-pyrazol-4-yl]pyridine-2-carboxylic acid]",,0.014 µM,0.741 µM
"O=C(Nc1nc2ccccc2s1)c1cccc2c1CN(c1ccc(-c3cnn(Cc4cccc(-c5ccccc5)c4)c3)c(C(=O)O)n1)CC2 [Example 58, 6-[8-(1,3-benzothiazol-2-ylcarbamoyl)-3,4-dihydroisoquinolin-2(1H)-yl]-3-[1-(biphenyl-3-ylmethyl)-1H-pyrazol-4-yl]pyridine-2-carboxylic acid]",,0.174 µM,> 1 µM
"CC(C)(C)Cn1cc(-c2ccc(N3CCc4cccc(C(=O)Nc5nc6ccccc6s5)c4C3)nc2C(=O)O)cn1 [Example 59, 6-[8-(1,3-benzothiazol-2-ylcarbamoyl)-3,4-dihydroisoquinolin-2(1H)-yl]-3-[1-(2,2-dimethylpropyl)-1H-pyrazol-4-yl]pyridine-2-carboxylic acid]",> 1 µM,0.424 µM,
"O=C(Nc1nc2ccccc2s1)c1cccc2c1CN(c1ccc(-c3cnn(CCC4CCCCC4)c3)c(C(=O)O)n1)CC2 [Example 60, 6-[8-(1,3-benzothiazol-2-ylcarbamoyl)-3,4-dihydroisoquinolin-2(1H)-yl]-3-[1-(2-cyclohexylethyl)-1H-pyrazol-4-yl]pyridine-2-carboxylic acid]",,0.005 µM,0.219 µM
"O=C(Nc1nc2ccccc2s1)c1cccc2c1CN(c1ccc(-c3cnn(Cc4cccc(C(F)(F)F)c4)c3)c(C(=O)O)n1)CC2 [Example 61, 6-[8-(1,3-benzothiazol-2-ylcarbamoyl)-3,4-dihydroisoquinolin-2(1H)-yl]-3-{1-[3-(trifluoromethyl)benzyl]-1H-pyrazol-4-yl}pyridine-2-carboxylic acid]",,0.011 µM,0.38 µM
"O=C(Nc1nc2ccccc2s1)c1cccc2c1CN(c1ccc(-c3cnn(Cc4ccccc4-c4ccccc4)c3)c(C(=O)O)n1)CC2 [Example 62, 6-[8-(1,3-benzothiazol-2-ylcarbamoyl)-3,4-dihydroisoquinolin-2(1H)-yl]-3-[1-(biphenyl-2-ylmethyl)-1H-pyrazol-4-yl]pyridine-2-carboxylic acid]",,0.061 µM,> 1 µM
"Cc1c(-c2ccc(N3CCc4cccc(C(=O)Nc5nc6ccccc6s5)c4C3)nc2C(=O)O)cnn1CC1CCCC1 [Example 63, 6-[8-(1,3-benzothiazol-2-ylcarbamoyl)-3,4-dihydroisoquinolin-2(1H)-yl]-3-[1-(cyclopentylmethyl)-5-methyl-1H-pyrazol-4-yl]pyridine-2-carboxylic acid]",,0.002 µM,0.027 µM
